Drawing on ChEMBL document CHEMBL5543082, “In vitro and in vivo anti-pigmentation effects of 2-mercaptobenzimidazoles as nanomolar tyrosinase inhibitors on mammalian cells and zebrafish embryos: Preparation of pigment-free zebrafish embryos” (Eur J Med Chem, 2024), this text covers inhibition, Activity and IC50 for 14 molecules.

The source made the active and inactive calls. No cut-off for these calls is given here.

Series [1] addresses T1, Tyrosinase (Mus musculus) (UniProt P11344).
T1 sequence (whole entry): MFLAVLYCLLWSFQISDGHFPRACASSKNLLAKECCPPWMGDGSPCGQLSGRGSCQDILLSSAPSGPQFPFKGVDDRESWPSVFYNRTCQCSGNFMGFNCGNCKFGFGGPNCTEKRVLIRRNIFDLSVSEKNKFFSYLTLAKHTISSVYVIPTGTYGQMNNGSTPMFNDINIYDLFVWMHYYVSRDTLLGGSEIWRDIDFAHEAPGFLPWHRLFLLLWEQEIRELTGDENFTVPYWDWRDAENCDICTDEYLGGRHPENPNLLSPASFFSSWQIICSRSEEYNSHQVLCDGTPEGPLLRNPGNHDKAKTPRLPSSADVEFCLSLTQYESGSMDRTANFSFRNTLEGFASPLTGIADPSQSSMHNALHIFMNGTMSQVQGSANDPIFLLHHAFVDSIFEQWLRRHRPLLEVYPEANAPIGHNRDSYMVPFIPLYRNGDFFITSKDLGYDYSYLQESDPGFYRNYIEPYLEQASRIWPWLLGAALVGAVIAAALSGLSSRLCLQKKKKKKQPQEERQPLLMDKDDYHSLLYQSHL
Kind of series: Inhibition of tyrosinase activity in mouse B16-F10 cells preincubated for 1 hr followed by alpha-MSH and IBMX addition and measured after 72 hrs. The following applies: time 73.0 hrs. Format: cell-based.

In series [2] the test system is B16-F10. Kind of series: Inhibition of melanin production in mouse B16-F10 cells preincubated for 1 hr followed by alpha-MSH and IBMX addition and measured after 72 hrs. Format: functional, cell-based. To be noted: dose 5-20 µM, time 73.0 hrs.
For series [3], the system named is Danio rerio. Kind of series: Depigmentation activity in zebrafish embryos administered at 21 hpf and measured after 69 hpf. The format is functional, organism-based. To be noted: dose 0.01-0.4 mM, time […].
Series [4] can be described thus: Antioxidant activity assessed as reduction in FeSO4 induced hydroxyl radical production at 40 uM. The format is functional.
A short description of series [5]: Antioxidant activity assessed as reduction in H2O2 induced hydroxyl radical production at 40 uM. Format: functional.
Series [6] is described as follows: Antioxidant activity assessed as peroxynitrite scavenging activity by measuring rhodamine 123 fluorescence intensity at 50 uM in presence of SIN-1. Format: functional.
Series [7] concerns B16-F10. Kind of series: Cytotoxicity against mouse B16-F10 cells at <= 20 uM after 72 hrs by EZ-Cytox solution based microplate reader assay. Format: toxicity, cell-based. To be noted: b16-f10, 72 h.
Series [8] relates to HaCaT. Kind of series: Cytotoxicity against human HaCaT cells at <= 20 uM after 24 hrs by EZ-Cytox solution based microplate reader assay. The format is toxicity, cell-based.
The target of series [9] is T2, Mushroom tyrosinase (Agaricus bisporus, UniProt O42713+Q00024+C7FF04+C7FF05). Kind of series: Inhibition of mushroom tyrosinase diphenolase activity using L-dopa as substrate incubated for 0.5 hrs. The format is protein assay.
Series [10] addresses T2, Mushroom tyrosinase. Kind of series: Inhibition of mushroom tyrosinase monophenolase activity using L-tyrosine as substrate incubated for 0.5 hrs. The format is protein assay.

For the molecule `Cc1ccc2[nH]c(=S)[nH]c2c1`, the inhibition result in [1] and in series [2] was “Dose-Dependent Effect” each time. Moreover, the Activity entry in series [3] is “Dose-Dependent Effect”. For the same molecule, the outcome in [4] and in series [5] was inactive.

For `Cc1c(C)c2c(c(C)c1O)CCC(C)(C(=O)O)O2` (centres undefined), the outcome in series [6], in series [4] and in [5] was Active.

For the molecule `O=C(c1ccccc1)c1ccc2[nH]c(=S)[nH]c2c1`, the Activity result in series [7] and in series [8] was “Non-Toxic” throughout.

As to `O=[N+]([O-])c1ccc2[nH]c(S)nc2c1`, the Activity entry in [3] was “Dose-Dependent Effect”. In addition, the outcome in [4] and in series [5] was inactive.

In the case of `Cc1ccc2[nH]c(S)nc2c1`, the Activity result in series [7] and in [8] was “Non-Toxic” each time.

Regarding `Cc1cc2nc(S)[nH]c2cc1C`, the inhibition entry in [1] and in series [2] was “Dose-Dependent Effect” in each case. Moreover, the figures for the Activity entry in series [7], in series [8] and in series [3] were “Non-Toxic”, “Non-Toxic” and “Dose-Dependent Effect”, respectively. The result in [4] and in series [5] was inactive.

As for `CC(C)(S)[C@@H](N)C(=O)O`, the result in series [6] was Active.

Regarding `Fc1ccc2[nH]c(S)nc2c1`, in [3], the Activity entry is “Dose-Dependent Effect”. Besides, the outcome in series [4] and in series [5] was inactive.

By IC50 is commonly meant the concentration at which inhibition is half-maximal. Read a high IC50 as lower potency. In the case of `Cc1cccc2[nH]c(=S)[nH]c12`, the IC50 in series [9] was 740 nM; in [10], 5780 nM. Moreover, in [3], the Activity result was “Dose-Dependent Effect”. The result in series [4] and in [5] was inactive.

As to `O=C(c1ccccc1)c1ccc2[nH]c(S)nc2c1`, the inhibition result in series [1] and in series [2] was “Dose-Dependent Effect” throughout. For the same molecule, the IC50 in series [9] is on record as 20 nM; in series [10], 100 nM. Further, in series [3], the Activity entry is “Dose-Dependent Effect”. Also, the result in [6] was Active. Besides, the result in [4] and in [5] was inactive.

As to `Sc1nc2cc(Cl)ccc2[nH]1`, the inhibition result in [1] and in series [2] was “Dose-Dependent Effect” each time. The Activity entry was “Non-Toxic” in series [7], “Non-Toxic” in series [8] and “Dose-Dependent Effect” in [3]. In addition, the result in [6] was Active. For the same molecule, the result in [4] and in series [5] was inactive.

Consider `COc1ccc2[nH]c(S)nc2c1`, for which, in series [3], the Activity result is “Dose-Dependent Effect”. Also, the result in [4] and in series [5] was inactive.

Consider `N#Cc1ccc2[nH]c(S)nc2c1`, for which the IC50 in [9] worked out at 40 nM; in series [10] it was 110 nM. Moreover, in [3], the Activity entry is “Dose-Dependent Effect”. Besides, the result in series [6] was Active. In addition, the result in series [4] and in series [5] was inactive.

Turning to `Sc1nc2ccccc2[nH]1`, the Activity entry in [3] was “Dose-Dependent Effect”. In addition, the outcome in [4] and in [5] was inactive.
